# Results: patent US10709704B2, “Treating neural disease with tyrosine kinase inhibitors” (GEORGETOWN UNIVERSITY, priority 2012, dated 2020)
# What was measured:
# caspase-3 activation = tested on: caspase-3 activation
# Procedure: Lentiviral constructs encoding LacZ, or Aβ1-42 were stereotaxically injected 1×106 multiplicity of infection (m.o.i) bilaterally into the CA1 hippocampus of 1 year old C57BL/6 or parkin−/−. A Total of […] lentiviral stocks were delivered at a rate of 0.2 μl/min and. All procedures were approved by the Georgetown University Animal Care and Use Committee (GUACUC).
# Aβ and p-Tau enzyme-linked immunosorbent assay (ELISA) using specific p-Tau, Aβ1-40 and Aβ1-42 ELISA and caspase-3 activity were performed according to manufacturer's protocol.
# transgenic A53T mice = assay: Rotarod, A53T mice; type: in vivo, mouse
# Description: Mice were placed on an accelerating rotarod (Columbus Instruments) equipped with individual timers for each mouse. […] All values were converted to % control.
# [1] = tested on: human M17 neuroblastoma cells; assay: MTT cell viability, M17 cells transfected with Aβ1-42 or LacZ; type: cell-based; settings: Nilotinib 24 hr
# Procedure: (§1) Human neuroblastoma M17 or rat B35 cells were grown in 24 well dishes (Falcon). Transient transfection was performed with 3 μg Aβ1-42 cDNA, or 3 μg LacZ cDNA for 24 hr. […] Cells were harvested 48 hr after transfection.
# (§2) Parkin levels were measured via ELISA using parkin−/− brain extracts as a specificity control (FIG. 66A).
# parkin = assay: Parkin levels in neuroblastoma cells (ELISA, WB); type: cell-based
# Procedure: as §1, §2
# [2] = tested on: molecular markers of autophagy; assay: Western blot of autophagy markers, lentiviral Aβ1-42 parkin−/− mice; type: in vivo, mouse
# [3] = tested on: parkin and molecular markers of autophagy; assay: Parkin and autophagy markers (WB, ELISA), lentiviral Aβ1-42 wild type mice; type: in vivo, mouse
# [4] = wild type lentiviral Aβ1-42 mice, Nilotinib vs DMSO
compound,measurement,setting,value
Cc1cn(-c2cc(NC(=O)c3ccc(C)c(Nc4nccc(-c5cccnc5)n4)c3)cc(C(F)(F)F)c2)cn1 [Nilotinib],increase in caspase-3 activation,caspase-3 activation; lentiviral Aβ1-42 parkin−/− mice with Nilotinib (without 180%),165%
same,caspase-3 activation above control,"caspase-3 activation; lentiviral Aβ1-42 wild type mice, 10 mg/kg daily 3 weeks (DMSO 165%)",45 % above control
same,increase in rotarod motor performance above control levels,"transgenic A53T mice; 6-8 months old A53T mice, Nilotinib",45%
same,motor performance (rotarod),"transgenic A53T mice; A53T mice, 10 mg/kg Nilotinib or 5 mg/Kg Bosutinib once daily for 3 weeks",increased
same,cell viability (MTT) after Aβ1-42 induced cell death,[1]; Aβ1-42 expressing cells,83 % of control level
same,cell death (by MTT),[1]; LacZ cells,No cell death
same,"increase in parkin (ELISA), non-significant",parkin; 10 μM Nilotinib,17%
same,increase in parkin (ELISA),parkin; Aβ1-42 + Nilotinib,24%
same,increase in Nilotinib-induced parkin on blocking beclin-1 with shRNA (WB),parkin; shRNA beclin-1 + Nilotinib,28%
same,Atg12 and Atg5 levels (WB),[2],not changed
same,LC3-II (WB),[2],did not clear
same,LC3-II,[3]; [4],disappearance
same,decrease in LC3-B,[3]; [4],38%
same,parkin level (ELISA),[3]; wild type mice and lentiviral Aβ1-42 ± Nilotinib,increases parkin level
